Experimental data as given in patent US20250295763A1 (priority 2024, published 2025).
Read-outs that look alike come from different tables or passages of the source.

What was measured:
[1] = background statement; cited from earlier work
[2] = for Average body weight change (%) Post-dose 1 D 1 / Average body weight change (%) Post-dose 1 D 2 / Average body weight change (%) Post-dose 1 D 14 / Average body weight change (%) Post-dose 2 D 15 / Average body weight change (%) Post-dose 2 D 16 / Average body weight change (%) Post-dose 2 D 21: Table 3; for Average body weight change (%) Post-dose 1 D 1 / Body weight change (%) Post-dose 1 D 1: i.m. Days 0 and 14, 0.3 mcg H3N2; for Average body weight change (%) Post-dose 1 D 1: 5/50 mcg TLR4 agonist/Synsap, alone: 5 mcg 3D-6A-PHAD, 5 mcg EcML, 10 mcg TLR4-1, 50 mcg Synsap, 5/5 mcg AS01B; for Average body weight change (%) Post-dose 1 D 2 / Average body weight change (%) Post-dose 1 D 14 / Average body weight change (%) Post-dose 2 D 15 / Average body weight change (%) Post-dose 2 D 16 / Average body weight change (%) Post-dose 2 D 21 / Body weight change (%) Post-dose 1 D 2 / Body weight change (%) Post-dose 1 D 14 / Body weight change (%) Post-dose 2 D 15 / Body weight change (%) Post-dose 2 D 16 / Body weight change (%) Post-dose 2 D 21: same groups
H3N2 = type: in vivo, C57BL/6 mice
[3] = Table 4, after the boost (day 28), 5 mcg TLR4 agonist / 50 mcg Synsap, 0.3 mcg H3N2

Structure (SMILES) | solubility in water [1] | Average body weight change (%) Post-dose 1 D 1 [2] | Average body weight change (%) Post-dose 1 D 2 [2] | Average body weight change (%) Post-dose 1 D 14 [2] | Average body weight change (%) Post-dose 2 D 15 [2] | Average body weight change (%) Post-dose 2 D 16 [2] | Average body weight change (%) Post-dose 2 D 21 [2] | HI titers GMT mean (H3N2; [3]) | HI titers Fold (compare to AS01B) (H3N2; Table 4, day 28) | HI titers Fold (compare to H3N2) (H3N2; Table 4, day 28) | also measured
CCC(C)C(CC(O)CC(=O)OC1C(C)OC(OC(=O)C23CCC(C)(C)CC2C2=CCC4C5(C)CCC(OC6OC(C(=O)O)C(O)C(OC7OCC(O)C(O)C7O)C6OC6OC(CO)C(O)C(O)C6O)C(C)(C=O)C5CCC4(C)C2(C)CC3O)C(OC2OC(C)C(OC3OCC(O)C(OC4OCC(O)(CO)C4O)C3O)C(OC3OC(CO)C(O)C(O)C3O)C2O)C1O)OC(=O)CC(O)CC(OC1OC(CO)C(O)C1O)C(C)CC (stereo not shown) [QS-18] | water-soluble | – | – | – | – | – | – | – | – | – | –
CCCCCCCCCCCCCC(=O)O[C@H](CCCCCCCCCCC)CC(=O)OC1C(NC(=O)C[C@@H](CCCCCCCCCCC)OC(=O)CCCCCCCCCCC)[C@H](OCC2O[C@H](O)C(NC(=O)C[C@H](O)CCCCCCCCCCC)C(OC(=O)C[C@H](O)CCCCCCCCCCC)[C@@H]2O)OC(CO)[C@H]1OP(=O)(O)O (stereo partly shown) [EcML, reference compound] | – | −3.607% | −1.832% | 7.914% | −3.002% | −0.735% | 1.468% | 403.2 | 0.3 | 2.5 | –
CCOCc1nc2c(N)nc3ccccc3c2n1CC(C)(C)O [Synsap R848, Resiquimod, reference compound] | – | – | – | – | – | – | – | – | – | – | Body weight change (%) Post-dose 1 D 1 ([2]; Table 7, 10 mcg R848 with 2, 10, 50 or 100 mcg Synsap 14): −3.012%; Body weight change (%) Post-dose 1 D 2 ([2]; Table 7): −0.416%; Body weight change (%) Post-dose 1 D 14 ([2]; Table 7): 5.224%; Body weight change (%) Post-dose 2 D 15 ([2]; Table 7): −4.078%; Body weight change (%) Post-dose 2 D 16 ([2]; Table 7): −0.804%; Body weight change (%) Post-dose 2 D 21 ([2]; Table 7): 1.856%; HI titer GMT mean (H3N2; Table 8, after the boost (day 28), 10 mcg R848 with 2, 10, 50 or 100 mcg Synsap 14, 0.3 mcg H3N2): 183.8; HI titer Fold (compare to H3N2 alone) (H3N2; Table 8, day 28): 1.1; HI titer Fold (compare to R848 treated group) (H3N2; Table 8, day 28): 1.0; HI titer Fold (compare to SynSap 14 treated group) (H3N2; Table 8, day 28): 1.0
CCC(C)C(CC(O)CC(=O)OC1C(C)OC(OC(=O)C23CCC(C)(C)CC2C2=CCC4C5(C)CCC(OC6OC(C(=O)O)C(O)C(OC7OCC(O)C(O)C7O)C6OC6OC(CO)C(O)C(O)C6O)C(C)(C=O)C5CCC4(C)C2(C)CC3O)C(OC2OC(C)C(OC3OCC(O)C(OC4OCC(O)(CO)C4O)C3O)C(OC3OC(CO)C(O)C(O)C3O)C2O)C1O)OC(=O)CC(O)CC(OC1OC(COC2OC(C)C(O)C(O)C2O)C(O)C1O)C(C)CC (stereo not shown) [QS-17] | water-soluble | – | – | – | – | – | – | – | – | – | –
CCCCCCCCCCCCCC(=O)O[C@H](CCCCCCCCCCC)CC(=O)NC1C(OC(=O)C[C@@H](CCCCCCCCCCC)OC(=O)CCCCCCCCCCCCC)[C@H](OP(=O)(O)O)C(CO)O[C@H]1OCC1O[C@H](O)C(NC(=O)C[C@@H](CCCCCCCCCCC)OC(=O)CCCCCCCCCCCCC)C(O)[C@@H]1O.N (stereo partly shown) [Synsap 3D-6A-PHAD, reference compound] | – | −5.362% | −2.900% | 6.215% | −1.147% | 0.463% | 2.331% | 806.3 | 0.6 | 5.0 | –
CC1O[C@@H](OC(=O)[C@]23CCC(C)(C)CC2C2=CCC4C5(C)CC[C@H](O[C@@H]6O[C@H](C(=O)NCCCCCCCCc7ccc(N8CCOCC8)cc7)[C@@H](O)[C@H](O)[C@H]6O)[C@](C)(C=O)[C@@H]5CC[C@]4(C)C2(C)CC3O)C(O[C@@H]2OC(C)[C@H](O[C@@H]3OC[C@@H](O)[C@H](O)C3O)[C@H](O)C2O)[C@@H](O)[C@H]1O (stereo partly shown) [Synsap 5] | – | – | – | – | – | – | – | – | – | – | Body weight change (%) Post-dose 1 D 1 ([2]; Table 5, 100 mcg Synsap 5, 10 mcg Pam3CSK4): −3.166%; Body weight change (%) Post-dose 1 D 2 ([2]; Table 5): 1.523%; Body weight change (%) Post-dose 1 D 14 ([2]; Table 5): 4.909%; Body weight change (%) Post-dose 2 D 15 ([2]; Table 5): −0.174%; Body weight change (%) Post-dose 2 D 16 ([2]; Table 5): 3.144%; Body weight change (%) Post-dose 2 D 21 ([2]; Table 5): 7.000%; HI titers GMT mean (H3N2; Table 6, after the boost (day 28), 100 mcg Synsap 5, 10 mcg Pam3CSK4, 0.3 mcg H3N2): 2048; HI Titers Fold (compare to CpG1018) (H3N2; Table 6, day 28): 0.9; HI Titers Fold (compare to SynSap 17) (H3N2; Table 6, day 28): 1.0; HI titers Fold (compare to H3N2) (H3N2; Table 6, day 28): 13
